Consider ten molecules from patent publication US20260242419A1, “A CYCLIC PEPTIDE FOR TRAPPING INTERLEUKIN-1 BETA” (Merck Sharp & Dohme LLC, priority 2023, published 2026).

Starred links: 1 amine or outer side, 2 acyl side, 3 side chain; linkers in the order of their positions; H or OH if unused. Non-standard residues stand in square brackets, D forms with d. Residues, ends and D or L forms follow the SMILES beside them. Trp(βS-Me,4-F) = C[C@@H](c1c[nH]c2cccc(F)c12)[C@H](N)C(=O)O; Bip(4'-COOH) = N[C@@H](Cc1ccc(-c2ccc(C(=O)O)cc2)cc1)C(=O)O; X4 = O=C([C@H]1[C@@H](Cc2ccncc2)CCN1[*:1])[*:2]; Ala(pyrimidin-5-yl) = N[C@@H](Cc1cncnc1)C(=O)O; Phe(4-COOH) = N[C@@H](Cc1ccc(C(=O)O)cc1)C(=O)O; Nva(5,5,5-F3) = N[C@@H](CCC(F)(F)F)C(=O)O; Pro(cis-4-F) = O=C(O)[C@@H]1C[C@H](F)CN1; X46 = O=C([C@@H](Cc1cncnc1)N[*:1])[*:2]; dPhe(4-F) = N[C@H](Cc1ccc(F)cc1)C(=O)O; d(αMeD) = C[C@@](N)(CC(=O)O)C(=O)O; 4Pal = N[C@@H](Cc1ccncc1)C(=O)O; d3Pal = N[C@H](Cc1cccnc1)C(=O)O; dCha = N[C@H](CC1CCCCC1)C(=O)O; NMeDab = CN[C@@H](CCN)C(=O)O; dCba = N[C@H](CC1CCC1)C(=O)O; Dab = NCC[C@H](N)C(=O)O; Aib = CC(C)(N)C(=O)O

T1 sequence (P01584 117-269): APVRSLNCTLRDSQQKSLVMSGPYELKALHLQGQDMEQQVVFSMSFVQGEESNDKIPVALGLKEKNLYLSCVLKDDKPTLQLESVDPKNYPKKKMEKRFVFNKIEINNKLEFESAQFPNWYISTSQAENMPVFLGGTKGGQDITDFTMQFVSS

This assay concerns the target T1, IL-1β (Homo sapiens, UniProt P01584).
T1 construct: purchased BioLegend 579404
The assay is described as follows: IL-6 assay in MRC5 cells: inhibition of IL-1β induced IL-6 secretion (AlphaLISA). The format is cell-based. The following applies: inhibition of IL-1β induced IL-6 secretion in MRC5 cells; compound pre-incubated 1 hour with recombinant human IL-1β; read-out: MRC5 IC50. The method in brief:
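Compound was pre-incubated 1 h at ambient temperature with recombinant human IL-1β at 2λ EC80 before adding human lung fibroblast MRC5 cells (3000/well) in EMEM with 0.025% BSA. After overnight culture at 37 °C, 5% CO2, secreted IL-6 in conditioned medium was measured by AlphaLISA; IC50 from 4-parameter logistic fits.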
(Bead proximity is the source of the signal in Alpha formats.)
As a reminder, the IC50 is the point on the concentration scale where inhibition reaches its midpoint. With `C[C@@H](c1c[nH]c2cccc(F)c12)[C@@H]1NC(=O)[C@@H]2C[C@H](F)CN2C(=O)CNC(=O)[C@H](Cc2ccc(C(=O)O)cc2)NC(=O)[C@H](Cc2ccncc2)NC(=O)[C@H](Cc2ccc(-c3ccc(C(=O)O)cc3)cc2)NC(=O)[C@H]2[C@@H](Cc3ccncc3)CCN2C(=O)CNC(=O)[C@H](CCN)NC(=O)[C@H](CCC(N)=O)NC(=O)[C@H](CCC(F)(F)F)NC(=O)[C@@](C)(CC(=O)O)NC(=O)[C@H](Cc2c[nH]c3ccccc23)NC(=O)[C@H](CO)NC(=O)C(C)(C)NC1=O` [Example 232] (cyclo([Bip(4'-COOH)][4Pal][Phe(4-COOH)]G[Pro(cis-4-F)][Trp(βS-Me,4-F)][Aib]SW[d(αMeD)][Nva(5,5,5-F3)]Q[Dab]G[X4])), the IC50 is 22 pM.
Turning to `C[C@@H](c1c[nH]c2cccc(F)c12)[C@@H]1NC(=O)[C@@H]2C[C@H](F)CN2C(=O)CNC(=O)[C@H](Cc2ccc(C(=O)O)cc2)NC(=O)[C@H](Cc2ccncc2)NC(=O)[C@H](Cc2ccc(-c3ccc(C(=O)O)cc3)cc2)NC(=O)[C@H]2[C@@H](Cc3ccncc3)CCN2C(=O)CNC(=O)[C@H](CCN)NC(=O)[C@H](CCC(N)=O)NC(=O)[C@@H](Cc2cncnc2)NC(=O)C(C)(C)NC(=O)[C@H](Cc2c[nH]c3ccccc23)NC(=O)[C@H](CO)NC(=O)C(C)(C)NC1=O` [Example 233] (cyclo([Bip(4'-COOH)][4Pal][Phe(4-COOH)]G[Pro(cis-4-F)][Trp(βS-Me,4-F)][Aib]SW[Aib][X46]Q[Dab]G[X4])), the IC50 amounted to 30 pM.
The figure for `C[C@@H](c1c[nH]c2cccc(F)c12)[C@@H]1NC(=O)[C@@H]2C[C@H](F)CN2C(=O)CNC(=O)[C@H](Cc2ccc(C(=O)O)cc2)NC(=O)[C@H](Cc2ccncc2)NC(=O)[C@H](Cc2ccc(-c3ccc(C(=O)O)cc3)cc2)NC(=O)[C@H]2[C@@H](Cc3ccncc3)CCN2C(=O)CNC(=O)[C@H](CCN)NC(=O)[C@H](CCC(N)=O)NC(=O)[C@@H](CC(=O)O)NC(=O)C(C)(C)NC(=O)[C@H](Cc2c[nH]c3ccccc23)NC(=O)[C@H](CO)NC(=O)C(C)(C)NC1=O` [Example 234] (cyclo([Bip(4'-COOH)][4Pal][Phe(4-COOH)]G[Pro(cis-4-F)][Trp(βS-Me,4-F)][Aib]SW[Aib][dD]Q[Dab]G[X4])) is 24 pM; for `C[C@@H](c1c[nH]c2cccc(F)c12)[C@@H]1NC(=O)[C@@H]2C[C@H](F)CN2C(=O)CNC(=O)[C@H](Cc2ccc(C(=O)O)cc2)NC(=O)[C@H](Cc2ccncc2)NC(=O)[C@H](Cc2ccc(-c3ccc(C(=O)O)cc3)cc2)NC(=O)[C@H]2[C@@H](Cc3ccncc3)CCN2C(=O)CNC(=O)[C@H](CCN)N(C)C(=O)[C@H](CCC(N)=O)NC(=O)[C@H](Cc2cncnc2)NC(=O)[C@@](C)(CC(=O)O)NC(=O)[C@H](Cc2c[nH]c3ccccc23)NC(=O)[C@H](CO)NC(=O)C(C)(C)NC1=O` [Example 235] (cyclo([Bip(4'-COOH)][4Pal][Phe(4-COOH)]G[Pro(cis-4-F)][Trp(βS-Me,4-F)][Aib]SW[d(αMeD)][Ala(pyrimidin-5-yl)]Q[NMeDab]G[X4])) it is 18 pM; for `C[C@@H](c1c[nH]c2cccc(F)c12)[C@@H]1NC(=O)[C@@H]2C[C@H](F)CN2C(=O)CNC(=O)[C@H](Cc2ccc(C(=O)O)cc2)NC(=O)[C@H](Cc2ccncc2)NC(=O)[C@H](Cc2ccc(-c3ccc(C(=O)O)cc3)cc2)NC(=O)[C@H]2[C@@H](Cc3ccncc3)CCN2C(=O)CNC(=O)[C@H](CCN)NC(=O)[C@H](CCC(N)=O)NC(=O)[C@@H](Cc2ccc(F)cc2)NC(=O)[C@@](C)(CC(=O)O)NC(=O)[C@H](Cc2c[nH]c3ccccc23)NC(=O)[C@H](CO)NC(=O)C(C)(C)NC1=O` [Example 236] (cyclo([Bip(4'-COOH)][4Pal][Phe(4-COOH)]G[Pro(cis-4-F)][Trp(βS-Me,4-F)][Aib]SW[d(αMeD)][dPhe(4-F)]Q[Dab]G[X4])) it is 21 pM.
Consider `C[C@@H](c1c[nH]c2cccc(F)c12)[C@@H]1NC(=O)[C@@H]2C[C@H](F)CN2C(=O)CNC(=O)[C@H](Cc2ccc(C(=O)O)cc2)NC(=O)[C@H](Cc2ccncc2)NC(=O)[C@H](Cc2ccc(-c3ccc(C(=O)O)cc3)cc2)NC(=O)[C@H]2[C@@H](Cc3ccncc3)CCN2C(=O)CNC(=O)[C@H](CCN)NC(=O)[C@H](CCC(N)=O)NC(=O)[C@@H](CC2CCCCC2)NC(=O)[C@@](C)(CC(=O)O)NC(=O)[C@H](Cc2c[nH]c3ccccc23)NC(=O)[C@H](CO)NC(=O)C(C)(C)NC1=O` [Example 237] (cyclo([Bip(4'-COOH)][4Pal][Phe(4-COOH)]G[Pro(cis-4-F)][Trp(βS-Me,4-F)][Aib]SW[d(αMeD)][dCha]Q[Dab]G[X4])), for which the concentration for half-maximal inhibition (IC50) was 25 pM.
The figure for `CC(C)C[C@H]1NC(=O)[C@@](C)(CC(=O)O)NC(=O)[C@H](Cc2c[nH]c3ccccc23)NC(=O)[C@H](CO)NC(=O)C(C)(C)NC(=O)[C@H]([C@@H](C)c2c[nH]c3cccc(F)c23)NC(=O)[C@@H]2C[C@H](F)CN2C(=O)CNC(=O)[C@H](Cc2ccc(C(=O)O)cc2)NC(=O)[C@H](Cc2ccncc2)NC(=O)[C@H](Cc2ccc(-c3ccc(C(=O)O)cc3)cc2)NC(=O)[C@H]2[C@@H](Cc3ccncc3)CCN2C(=O)CNC(=O)[C@H](CCN)NC(=O)[C@H](CCC(N)=O)NC1=O` [Example 238] (cyclo([Bip(4'-COOH)][4Pal][Phe(4-COOH)]G[Pro(cis-4-F)][Trp(βS-Me,4-F)][Aib]SW[d(αMeD)][dL]Q[Dab]G[X4])) is 24 pM.
Consider `C[C@@H](c1c[nH]c2cccc(F)c12)[C@@H]1NC(=O)[C@@H]2C[C@H](F)CN2C(=O)CNC(=O)[C@H](Cc2ccc(C(=O)O)cc2)NC(=O)[C@H](Cc2ccncc2)NC(=O)[C@H](Cc2ccc(-c3ccc(C(=O)O)cc3)cc2)NC(=O)[C@H]2[C@@H](Cc3ccncc3)CCN2C(=O)CNC(=O)[C@H](CCN)NC(=O)[C@H](CCC(N)=O)NC(=O)[C@@H](CC2CCC2)NC(=O)[C@@](C)(CC(=O)O)NC(=O)[C@H](Cc2c[nH]c3ccccc23)NC(=O)[C@H](CO)NC(=O)C(C)(C)NC1=O` [Example 239] (cyclo([Bip(4'-COOH)][4Pal][Phe(4-COOH)]G[Pro(cis-4-F)][Trp(βS-Me,4-F)][Aib]SW[d(αMeD)][dCba]Q[Dab]G[X4])), for which the IC50 is 20 pM.
With `C[C@@H](c1c[nH]c2cccc(F)c12)[C@@H]1NC(=O)[C@@H]2C[C@H](F)CN2C(=O)CNC(=O)[C@H](Cc2ccc(C(=O)O)cc2)NC(=O)[C@H](Cc2ccncc2)NC(=O)[C@H](Cc2ccc(-c3ccc(C(=O)O)cc3)cc2)NC(=O)[C@H]2[C@@H](Cc3ccncc3)CCN2C(=O)CNC(=O)[C@H](CCN)NC(=O)[C@H](CCC(N)=O)NC(=O)[C@@H](Cc2cccnc2)NC(=O)[C@@](C)(CC(=O)O)NC(=O)[C@H](Cc2c[nH]c3ccccc23)NC(=O)[C@H](CO)NC(=O)C(C)(C)NC1=O` [Example 240] (cyclo([Bip(4'-COOH)][4Pal][Phe(4-COOH)]G[Pro(cis-4-F)][Trp(βS-Me,4-F)][Aib]SW[d(αMeD)][d3Pal]Q[Dab]G[X4])), the IC50 stood at 25 pM.
On to `C[C@@H](c1c[nH]c2cccc(F)c12)[C@@H]1NC(=O)[C@@H]2C[C@H](F)CN2C(=O)CNC(=O)[C@H](Cc2ccc(C(=O)O)cc2)NC(=O)[C@H](Cc2ccncc2)NC(=O)[C@H](Cc2ccc(-c3ccc(C(=O)O)cc3)cc2)NC(=O)[C@H]2[C@@H](Cc3ccncc3)CCN2C(=O)CNC(=O)[C@H](CCN)N(C)C(=O)[C@H](CCC(N)=O)NC(=O)[C@H](Cc2cncnc2)NC(=O)C(C)(C)NC(=O)[C@H](Cc2c[nH]c3ccccc23)NC(=O)[C@H](CO)NC(=O)C(C)(C)NC1=O` [Example 241] (cyclo([Bip(4'-COOH)][4Pal][Phe(4-COOH)]G[Pro(cis-4-F)][Trp(βS-Me,4-F)][Aib]SW[Aib][Ala(pyrimidin-5-yl)]Q[NMeDab]G[X4])), for which the IC50 is 18 pM.
